Converted amounts (≈) assume the structure as drawn. “And” between values parts separate entries of the source, which are not always exact repeats. Equal entries are not always repeated. Where two headings read alike, the source gives them in different places.
Key:
[1] = tested on: Escherichia coli (ATCC 25922); test: MIC, broth microdilution with resazurin; format: cell-based; settings: 24 h at 37 °C; for MIC: Escherichia coli, ATCC25922, 24 h
Description: (§1) The acetylcholinesterase (AChE) and butyrylcholinesterase (BChE) were obtained from the mouse brain and human blood at the Pharmacology Department of King Saud University, SaudiArabia. Escherichia coli (ATCC 25922), Pseudomonas aeruginosa (ATCC 27853), and Staphylococcus aureus were provided by Microbiology Department, King Khaled University Hospital (KKUH), Saudi Arabia.
(§2) Minimum inhibitory concentration (MIC) assay was performed to evaluate the in vitro antimicrobial activities using a broth microdilution method ([Nascente, 2009]). Three bacterial strains Escherichia coli (ATCC 25922), Pseudomonas aeruginosa (ATCC 27853), and Staphylococcus aureus were applied to examine the antimicrobial activity of samples. Briefly, the microbial strains were transferred to Muller Hinton agar (MHB, HiMedia, India) and 24-h colonies were individually suspended in 10 mL Muller Hinton broth (MHB, HiMedia, India). The suspension of each microbial strain was standardized at 575 nm wavelength using a spectrophotometer (CRAIC Technologies, CA, USA), to match the McFarland scale (1.5 × 10^8 CFU mL^−1). The standardized suspension was further diluted to obtain a final concentration of 5 × 10^5 CFU mL^−1. The samples prepared in DMSO at 1 mgmL^−1 and different concentrations (30–500 µgmL^−1) were attained after dilution in Mueller Hinton broth. Three inoculated wells containing different concentrations of DMSO (4% to 1% range), one non-inoculated well without an antimicrobial agent and negative controls were included. The inoculated well was used to monitor whether the broth was sufficient for the microbial strain to grow. Chloramphenicol ([…]) was applied as a positive control. The sample treated 96-well microplates were sealed and incubated for 24 h at 37 °C After a 1-day incubation, […] of 0.02% resazurin solution was added into each well to examine the viability of the microbial strain ([Palomino et al., 2002]). The minimum used concentration of test sample that inhibited the microorganism growth (MIC value) was calculated as the minimum concentration of the test samples required to prevent the color change of the resazurin solution. All the assays were performed in triplicates.

[2] = tested on: Pseudomonas aeruginosa (ATCC 27853); test: MIC, broth microdilution with resazurin; format: cell-based; settings: 24 h at 37 °C; for MIC: Pseudomonas aeruginosa, ATCC27853, 24 h
Description: as §1, §2

Staphylococcus aureus = test: MIC, broth microdilution with resazurin; format: cell-based; settings: 24 h at 37 °C; for MIC: Staphylococcus aureus, 24 h
Description: as §1, §2

[3] = target: T1, acetylcholinesterase (AChE) (Mus musculus, UniProt P21836); test: biochemical; settings: for Donep (mg/gm) Avg (AChE inhibitory activity) / Abs (AChE inhibitory activity) / Donep (mg/gm) (AChE inhibitory activity), single trial: Conc 10 µg/mL; for Donep (mg/gm) Avg (AChE inhibitory activity): average of trials A-C; for Abs (AChE inhibitory activity) / Donep (mg/gm) (AChE inhibitory activity), single trial: single trials A, B, C
T1 construct: Crude enzymes, AChE (acetylcholinesterase) and BChE (butyrylcholinesterase) were collected from brain of mice and blood of humans, respectively; from tissue; host or cells: mouse brain
Description: (§3) The acetylcholinesterase (AChE) and butyrylcholinesterase (BChE) were obtained from the mouse brain and human blood at the Pharmacology Department of King Saud University, SaudiArabia.
(§4) The AChE and BChE assays were tested by using two chemical substrates acetylthiocholine iodide and S-butyrylthiochoilne iodide, respectively. […] Afterwards, […] (1 mM, 62 µL), sodium phosphate buffer (50 mM, 25 µL, pH 8) provided with bovine albumin serum (0.1%) and […] (0.5 mm, 13 µL) were added separately into each reaction mixture. […] All the experiments were performed in triplicates to avoid error and the results were estimated through the two-tailed Student’s t-test at a p < 0.05 significance. The inhibition percentage of cholinesterase activity was calculated using the following equation I%=AC−As/AC×100
(§5) where Ac and As is the absorbance of control and sample or reference compound. IC50 values could be determined from the dose response curve obtained by plotting the percent inhibition values against test concentrations of each compound.

[4] = target: T2, butyrylcholinesterase (BChE) (Homo sapiens, UniProt P06276); test: biochemical; settings: for Gal (mg/gm) Avg (BChE inhibitory activity) / Abs (BChE inhibitory activity) / Gal (mg/gm) (BChE inhibitory activity), single trial: Conc 10 µg/mL; for Gal (mg/gm) Avg (BChE inhibitory activity): average of trials A-C; for Abs (BChE inhibitory activity) / Gal (mg/gm) (BChE inhibitory activity), single trial: single trials A, B, C;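 on Abs (BChE inhibitory activity): absorbance read at 405 nm against blank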
T2 construct: Crude enzymes, AChE (acetylcholinesterase) and BChE (butyrylcholinesterase) were collected from brain of mice and blood of humans, respectively; from tissue; host or cells: human blood
Description: as §3, §4, §5

[5] = ABTS radical cation decolorization assay; settings: for AA (mg/gm) Avg (ABTS+ activity) / AA (mg/gm) (ABTS+ activity), single trial: Conc. 20 µg/mL; for AA (mg/gm) Avg (ABTS+ activity): average of trials A-C; for AA (mg/gm) (ABTS+ activity), single trial: single trials A, B, C; for ABTS^+ IC50: mean ± SD, triplicate, 30 min, 734 nm
Description: ABTS radical cation decolorization assay was performed to measure the total antioxidant activity of the samples by obeying the previously described method ([Re et al., 1999]). In brief, ABTS^•+ radicals were generated by treating 7 mM ABTS^+ aqueous solution with 2.4 mM potassium persulfate for 12-16 h at room temperature in the dark. Prior to use, this solution was diluted with ethanol (approx. 1:89 v/v) and equilibrated to […] absorbance at 734 nm to obtain the working solution. Afterward, a 1.0 mL of working solution was reacted with 20 µL (1 mg mL^−1) samples and incubated for 30 min. After incubation, samples were scanned at 734 nm absorbance wavelength and the percentage of inhibition was determined. Ascorbic acid (AA) was applied reference standard.

[6] = DPPH radical scavenging activity; settings: for AA (mg/gm) Avg (DPPH activity) / AA (mg/gm) (DPPH activity), single trial: Conc 20 µg/mL; for AA (mg/gm) Avg (DPPH activity): average of trials A-C; for AA (mg/gm) (DPPH activity), single trial: single trials A, B, C; for DPPH IC50: mean ± SD, triplicate, 30 min, 517 nm
Description: The ability of the samples to scavenge DPPH radical was determined by [Wang, Chen & Hou (2019)] method with slight modification ([Wang, Chen & Hou, 2019]). […] Samples were incubated at ambient temperature under dark conditions for 30 min and the absorbance wavelength was measured at 517 nm against a blank sample. DPPH^• solution and ascorbic acid were used as blank samples and positive control, respectively.
where Ab and As are the absorbance values of the blank and test samples, respectively.

[7] = E. coli, read-out: Minimum inhibitory concentration
[8] = P. aeruginosa, read-out: Minimum inhibitory concentration
[9] = S. aureus, read-out: Minimum inhibitory concentration
[10] = crude enzyme from mouse brain, mean ± SD, triplicate, read-out: AChE IC50 (converted)
[11] = crude enzyme from human blood, mean ± SD, triplicate, read-out: BChE IC50 (converted)

T2 sequence (P06276 29-602): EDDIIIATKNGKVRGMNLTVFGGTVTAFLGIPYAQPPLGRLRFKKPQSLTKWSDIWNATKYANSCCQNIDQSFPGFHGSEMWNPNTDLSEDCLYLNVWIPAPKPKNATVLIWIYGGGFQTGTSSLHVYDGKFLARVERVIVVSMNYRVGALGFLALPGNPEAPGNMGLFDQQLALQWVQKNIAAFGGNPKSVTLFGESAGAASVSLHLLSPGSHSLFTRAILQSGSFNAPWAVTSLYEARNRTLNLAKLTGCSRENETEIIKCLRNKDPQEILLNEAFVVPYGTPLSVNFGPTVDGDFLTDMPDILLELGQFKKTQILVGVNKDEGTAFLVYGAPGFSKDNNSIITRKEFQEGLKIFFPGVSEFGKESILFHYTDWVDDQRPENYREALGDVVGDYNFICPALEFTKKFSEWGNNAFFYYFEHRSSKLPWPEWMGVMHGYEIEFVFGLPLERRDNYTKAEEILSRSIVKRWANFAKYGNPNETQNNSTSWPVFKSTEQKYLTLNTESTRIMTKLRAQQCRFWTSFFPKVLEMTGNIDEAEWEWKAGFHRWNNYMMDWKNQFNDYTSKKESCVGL
T1 sequence (P21836 32-614): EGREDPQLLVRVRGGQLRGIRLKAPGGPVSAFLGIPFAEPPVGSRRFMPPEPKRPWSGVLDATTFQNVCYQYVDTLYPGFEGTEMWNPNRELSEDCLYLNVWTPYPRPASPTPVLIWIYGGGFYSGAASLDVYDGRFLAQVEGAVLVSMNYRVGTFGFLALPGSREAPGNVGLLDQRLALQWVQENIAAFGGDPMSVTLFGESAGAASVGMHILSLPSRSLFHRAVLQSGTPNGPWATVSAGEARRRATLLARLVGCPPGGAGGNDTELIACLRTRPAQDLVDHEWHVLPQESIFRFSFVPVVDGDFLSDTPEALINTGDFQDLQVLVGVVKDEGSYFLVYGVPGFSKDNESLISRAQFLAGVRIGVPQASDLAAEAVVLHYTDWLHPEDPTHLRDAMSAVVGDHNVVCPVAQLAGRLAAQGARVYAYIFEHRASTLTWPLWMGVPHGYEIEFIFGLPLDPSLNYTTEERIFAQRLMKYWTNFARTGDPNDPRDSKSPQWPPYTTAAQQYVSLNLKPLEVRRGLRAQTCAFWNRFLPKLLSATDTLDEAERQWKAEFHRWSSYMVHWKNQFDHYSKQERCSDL

Row | Structure (SMILES) | MIC [1, 7] [µg/mL] | MIC [2, 8] [µg/mL] | MIC (Staphylococcus aureus; [9]) [µg/mL] | Donep (mg/gm) Avg (AChE inhibitory activity) [3] [mg/gm] | Abs (AChE inhibitory activity) [3] | Donep (mg/gm) (AChE inhibitory activity), single trial [3] | IC50 [3, 10] [µM] | Gal (mg/gm) Avg (BChE inhibitory activity) [4] [mg/gm] | Abs (BChE inhibitory activity) [4] | Gal (mg/gm) (BChE inhibitory activity), single trial [4] | IC50 [4, 11] [µM] | AA (mg/gm) Avg (ABTS+ activity) [5] [mg/gm] | AA (mg/gm) (ABTS+ activity), single trial [5] | ABTS^+ IC50 [5] | AA (mg/gm) Avg (DPPH activity) [6] [mg/gm] | AA (mg/gm) (DPPH activity), single trial [6] | DPPH IC50 [6] | Minimum inhibitory concentration ([1]; E. coli) [µg/mL] | Minimum inhibitory concentration ([2]; P. aeruginosa) [µg/mL] | Minimum inhibitory concentration (Staphylococcus aureus; S. aureus) [µg/mL] | also measured
1 | CCCCCCCCCCCCCCCCCCCCC(O)C(=O)O (stereo not drawn) [Compound 1, 2-hydroxydocosanoic acid] | ≤ 500 | ≤ 1000 | ≤ 1000 | 121.97 | 0.342 and 0.328 and 0.345 | 122.89 mg/gm and 120.10 mg/gm and 122.92 mg/gm | 342 | 137.76 | 0.375 and 0.379 and 0.354 | 138.12 mg/gm and 136.98 mg/gm and 138.18 mg/gm | 386 | 11.45 | 11.64 mg/gm and 11.02 mg/gm and 11.70 mg/gm | 11.45 ± 0.37^d µgmL^−1 | 10.82 | 10.98 mg/gm and 10.54 mg/gm and 10.96 mg/gm | 10.82 ± 0.24^d µgmL^−1 | – | – | – | –
2 | CCCCCCCCCCCCCCCCCCCCCCCCCCCCCCCC(=O)O[C@H]1C[C@H](O)[C@]2(C)C3=CC=C4[C@@H]5CC(CO)(C(=O)O)CC[C@]5(C)CC[C@@]4(C)[C@]3(C)CCC2C1(C)C (stereo partly drawn) [Compound 3, 1α,3β,30-Trihydroxy-29-carboxy-olean-9(11), 12-diene-3-dotriacontanoate] | 125 to 150 (≈ 132 to 158 µM) | 125 to 150 (≈ 132 to 158 µM) | 125 to 150 (≈ 132 to 158 µM) | 38.13 | 0.289 and 0.294 and 0.315 | 38.16 mg/gm and 38.05 mg/gm and 38.20 mg/gm | 40.2 | 32.68 | 0.285 and 0.286 and 0.287 | 32.88 mg/gm and 32.25 mg/gm and 32.92 mg/gm | 34.4 | 6.42 | 6.56 mg/gm and 6.13 mg/gm and 6.58 mg/gm | 6.42 ± 0.25^b µgmL^−1 | 4.67 | 4.89 mg/gm and 4.35 mg/gm and 4.78 mg/gm | 4.67 ± 0.28^b µgmL^−1 | ≤150 | ≤125 | ≤125 | Minimum inhibitory concentration ([1]; E. coli, listed as compound 3): ≤ 150 µg/mL; Minimum inhibitory concentration ([2]; P. aeruginosa, listed as compound 3): ≤ 125 µg/mL; Minimum inhibitory concentration (Staphylococcus aureus; S. aureus, listed as compound 3): ≤ 125 µg/mL
3 | COc1ccc2c3c1O[C@H]1C[C@@H](O)C=C[C@@]31CCN(C)C2 [Galantamine, reference compound] | – | – | – | – | – | – | – | 10.27 | 0.345 and 0.348 and 0.352 | 10.78 mg/gm and 9.29 mg/gm and 10.80 mg/gm | – | – | – | – | – | – | – | – | – | – | –
4 | O=C(N[C@H](CO)[C@H](O)c1ccc([N+](=O)[O-])cc1)C(Cl)Cl [Chloramphenicol, reference compound] | ≤ 40 | ≤ 40 | ≤ 40 | – | – | – | – | – | – | – | – | – | – | – | – | – | – | – | – | – | –
5 | CC[C@@H](/C=C/[C@@H](C)C1CCC2C3CCC4C[C@@H](O)CC[C@]4(C)C3CC[C@@]21C)C(C)C (stereo partly drawn) [Compound 2, stigmasta-22-ene-3-β-ol] | – | – | – | 68.65 | 0.312 and 0.315 and 0.317 | 68.94 mg/gm and 68.01 mg/gm and 69.02 mg/gm | – | 49.52 | 0.355 and 0.365 and 0.358 | 49.70 mg/gm and 49.12 mg/gm and 49.74 mg/gm | – | 8.18 | 8.25 mg/gm and 8.02 mg/gm and 8.28 mg/gm | 8.18 ± 0.13^c µgmL^−1 | 7.60 | 7.84 mg/gm and 7.12 mg/gm and 7.86 mg/gm | 7.60 ± 0.42^c µgmL^−1 | ≤125 | ≤250 | ≤150 | MIC ([1]; read-out: Minimum inhibitory concentration, E. coli): ≤ 125 µg/mL; MIC ([2]; read-out: Minimum inhibitory concentration, P. aeruginosa): ≤ 250 µg/mL; MIC (Staphylococcus aureus; read-out: Minimum inhibitory concentration, S. aureus): ≤ 150 µg/mL; IC50 [3]: 166 µM; IC50 [4]: 119 µM
6 | O=C1O[C@H]([C@@H](O)CO)C(O)=C1O [Ascorbic acid, ascorbic acid, reference compound] | – | – | – | – | – | – | – | – | – | – | – | 4.45 | 4.52 mg/gm and 4.25 mg/gm and 4.58 mg/gm | 4.45 ± 0.17^a µgmL^−1 | 3.12 | 3.30 mg/gm and 2.84 mg/gm and 3.22 mg/gm | 3.12 ± 0.24^a µgmL^−1 | – | – | – | –

From paper PMC8916034, “Abubidentin A, New Oleanane-type Triterpene Ester from Abutilon bidentatum and its antioxidant, cholinesterase and antimicrobial activities” (PeerJ, 2022)
